Values joined by “and” are separate entries in the source; they are usually repeats but may differ in a detail not shown here. Equal entries are not always repeated. Inconclusive results and toxic doses are left out. Cut-off read from the data, not from the text of the source: active = T/C of 150% or more; inactive = T/C below 125%.
System: L1210 leukemia ip in BDF1 mice, survival T/C
Experiment: NCI In Vivo Anticancer Drug Screen. Data for tumor model L1210 Leukemia (intraperitoneal) in B6D2F1 (BDF1) mice
Conditions: endpoint: mean survival time, higher = longer survival
Outline: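 Mice bearing the transplanted tumor received compound or vehicle. Survival of the treated group was divided by that of the vehicle-treated control group to give the ratio.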

[1] = dose: 100.0 mg/kg/injection, schedule: Q01DX001 (ip), vehicle: saline
[2] = dose: 100.0 mg/kg/injection, schedule: Q04DX003 (ip), vehicle: saline
[3] = dose: 200.0 mg/kg/injection, schedule: Q04DX003 (ip), vehicle: saline
[4] = dose: 100.0 mg/kg/injection, schedule: Q01DX009 (ip), vehicle: saline with Tween-80
[5] = dose: 100.0 mg/kg/injection, schedule: Q04DX003 (ip), vehicle: saline with Tween-80
[6] = dose: 200.0 mg/kg/injection, schedule: Q01DX001 (ip), vehicle: saline
[7] = dose: 400.0 mg/kg/injection, schedule: Q01DX001 (ip), vehicle: saline
[8] = dose: 200.0 mg/kg/injection, schedule: Q01DX009 (ip), vehicle: saline with Tween-80
[9] = dose: 100.0 mg/kg/injection, schedule: Q01DX009 (ip), vehicle: Klucel (hydroxypropylcellulose) (HPC)
[10] = dose: 200.0 mg/kg/injection, schedule: Q01DX009 (ip), vehicle: Klucel (hydroxypropylcellulose) (HPC)
[11] = dose: 100.0 mg/kg/injection, schedule: Q01DX001 (ip), vehicle: saline with Tween-80
[12] = dose: 200.0 mg/kg/injection, schedule: Q01DX001 (ip), vehicle: saline with Tween-80
[13] = dose: 400.0 mg/kg/injection, schedule: Q01DX001 (ip), vehicle: saline with Tween-80
[14] = dose: 400.0 mg/kg/injection, schedule: Q01DX009 (ip), vehicle: saline with Tween-80
[15] = dose: 400.0 mg/kg/injection, schedule: Q01DX009 (ip), vehicle: Klucel (hydroxypropylcellulose) (HPC)

Measured: T/C

CCOC(=O)C(C#N)=C(C)C
inactive: dose: 75.0 mg/kg/injection, schedule: Q01DX001 (ip), vehicle: other 103 % of control | [1] 97 % of control | [2] 97 % of control | [3] 94 % of control

CC(C)(C)c1ccc(O)cc1
inactive: [4] 89 % of control

CCOC(=O)c1cnn2c(=O)[nH]cnc12
inactive: [5] 98 % of control | dose: 200.0 mg/kg/injection, schedule: Q04DX003 (ip), vehicle: saline with Tween-80 109 % of control

O=[N+]([O-])c1ccc(S(=O)(=O)/N=C2\CCS(=O)(=O)c3ccccc32)cc1
inactive: [1] 92 % of control | [6] 92 % of control | [7] 93 % of control

COC1C(=O)CCC2(CO2)C1(O)C1(C)OC1CC=C(C)C (centres undefined)
inactive: dose: 50.0 mg/kg/injection, schedule: Q01DX009 (ip), vehicle: saline with Tween-80 104 % of control | [4] 109 % of control | [2] 106 % of control | [8] 87 % of control | [3] 100 % of control

CCCC(C)OS(=O)(=O)c1ccc(N)cc1 (centres undefined)
inactive: [9] 113 % of control | [10] 95 % of control

NC(N)=N/N=C1\CCCC\C1=N/N=C(N)N
inactive: dose: 15.0 mg/kg/injection, schedule: Q01DX Z (ip), vehicle: carboxymethylcellulose (CMC) 97 % of control | dose: 30.0 mg/kg/injection, schedule: Q01DX Z (ip), vehicle: carboxymethylcellulose (CMC) 95 % of control | dose: 60.0 mg/kg/injection, schedule: Q01DX Z (ip), vehicle: carboxymethylcellulose (CMC) 91 % of control | dose: 60.0 mg/kg/injection, schedule: Q01DX Z (oral), vehicle: carboxymethylcellulose (CMC) 96 % of control | dose: 120.0 mg/kg/injection, schedule: Q01DX Z (ip), vehicle: carboxymethylcellulose (CMC) 102 % of control | dose: 120.0 mg/kg/injection, schedule: Q01DX Z (oral), vehicle: carboxymethylcellulose (CMC) 93 % of control | dose: 240.0 mg/kg/injection, schedule: Q01DX Z (oral), vehicle: carboxymethylcellulose (CMC) 88 % of control | dose: 480.0 mg/kg/injection, schedule: Q01DX Z (oral), vehicle: carboxymethylcellulose (CMC) 98 % of control

COc1ccc([I+]c2ccccc2C(=O)[O-])cc1OC
inactive: dose: 50.0 mg/kg/injection, schedule: Q01DX001 (ip), vehicle: saline 98 % of control | [1] 96 % of control | [6] 104 % of control | [7] 98 % of control

OC1CC2CCC(C1)S2 (centres undefined)
inactive: dose: 50.0 mg/kg/injection, schedule: Q01DX001 (ip), vehicle: Klucel (hydroxypropylcellulose) (HPC) 100 % of control | dose: 100.0 mg/kg/injection, schedule: Q01DX001 (ip), vehicle: Klucel (hydroxypropylcellulose) (HPC) 105 % of control | dose: 200.0 mg/kg/injection, schedule: Q01DX001 (ip), vehicle: Klucel (hydroxypropylcellulose) (HPC) 96 % of control

Cc1ccc[n+](CCc2c[nH]c3ccccc23)c1
inactive: [5] 90 % of control

CCCCCCC(CCCCCC)CCCCCC
inactive: [11] 99 % of control | [12] 100 % of control | [13] 99 % of control

Cc1ccc(S(=O)(=O)OCC2CC3CCC2C3)cc1 (centres undefined)
inactive: dose: 100.0 mg/kg/injection, schedule: Q04DX003 (ip), vehicle: other 91 % of control | dose: 200.0 mg/kg/injection, schedule: Q04DX003 (ip), vehicle: other 94 % of control | dose: 400.0 mg/kg/injection, schedule: Q04DX003 (ip), vehicle: other 98 % of control

CCCCCCC(O)CCCCCCCCCCC(=O)O (centres undefined)
inactive: [4] 106 % of control | [8] 93 % of control | [14] 88 % of control

O=Cc1cc(=O)[nH]c(NC(=O)C(Cl)Cl)n1
inactive: [1] 101 % of control | [6] 104 % of control | [7] 89 % of control

O=C1c2cc([N+](=O)[O-])ccc2CCC1C(O)(C(F)(F)F)C(F)(F)F (centres undefined)
inactive: [11] 100 % of control | [12] 102 % of control | [13] 100 % of control

O=c1oc(-c2ccccc2NS(=O)(=O)c2ccccc2)nc2cc(Cl)ccc12
inactive: [9] 103 % of control | [10] 104 % of control | [15] 110 % of control

COc1c(OC2OC(CO)C(O)C(O)C2O)cc2c(c1OC)-c1ccc(SC)c(=O)cc1C(NC(C)=O)CC2 (centres undefined)
inactive: dose: 6.0 mg/kg/injection, schedule: Q01DX009 (ip), vehicle: saline 97 % of control | dose: 12.0 mg/kg/injection, schedule: Q01DX001 (ip), vehicle: saline 98 % of control | dose: 12.0 mg/kg/injection, schedule: Q01DX009 (ip), vehicle: saline 98 % of control | dose: 25.0 mg/kg/injection, schedule: Q01DX001 (ip), vehicle: saline 100 % of control | dose: 25.0 mg/kg/injection, schedule: Q01DX009 (ip), vehicle: saline 101 % of control

O=[N+]([O-])Nc1ccc(C(c2ccc(N[N+](=O)[O-])cc2)c2ccc([N+](=O)[O-])cc2)cc1
inactive: dose: 100.0 mg/kg/injection, schedule: Q01DX005 (ip), vehicle: saline with Tween-80 89 % of control | [4] 100 % of control | dose: 200.0 mg/kg/injection, schedule: Q01DX005 (ip), vehicle: saline with Tween-80 100 % of control | [8] 92 % of control | dose: 400.0 mg/kg/injection, schedule: Q01DX005 (ip), vehicle: saline with Tween-80 89 % of control | [14] 94 % of control

COc1cc[n+]([O-])cc1
inactive: dose: 100.0 mg/kg/injection, schedule: Q01DX009 (ip), vehicle: saline 103 % of control | dose: 100.0 mg/kg/injection, schedule: Q01DX Z (ip), vehicle: saline 102 % of control and 106 % of control | [2] 121 % of control | dose: 150.0 mg/kg/injection, schedule: Q01DX Z (ip), vehicle: saline 103 % of control and 107 % of control | dose: 200.0 mg/kg/injection, schedule: Q01DX009 (ip), vehicle: saline 100 % of control | [3] 114 % of control | dose: 225.0 mg/kg/injection, schedule: Q01DX Z (ip), vehicle: saline 95 % of control and 97 % of control | dose: 300.0 mg/kg/injection, schedule: Q01DX Z (ip), vehicle: saline 92 % of control and 106 % of control | dose: 400.0 mg/kg/injection, schedule: Q01DX009 (ip), vehicle: saline 99 % of control | dose: 400.0 mg/kg/injection, schedule: Q04DX003 (ip), vehicle: saline 95 % of control

Nc1ccc2nc3ccc(N)cc3[n+](-c3ccccc3)c2c1
inactive: dose: 5.0 mg/kg/injection, schedule: Q01DX001 (ip), vehicle: other 111 % of control | dose: 10.0 mg/kg/injection, schedule: Q01DX001 (ip), vehicle: other 108 % of control | dose: 18.0 mg/kg/injection, schedule: Q01DX001 (ip), vehicle: other 101 % of control and 103 % of control | dose: 20.0 mg/kg/injection, schedule: Q01DX001 (ip), vehicle: other 108 % of control | dose: 27.0 mg/kg/injection, schedule: Q01DX001 (ip), vehicle: other 106 % of control and 118 % of control | dose: 40.0 mg/kg/injection, schedule: Q01DX001 (ip), vehicle: other 110 % of control and 114 % of control | dose: 60.0 mg/kg/injection, schedule: Q01DX001 (ip), vehicle: other 104 % of control

CN(N=O)c1ccc(N(C)N=O)cc1
inactive: dose: 50.0 mg/kg/injection, schedule: Q01DX009 (ip), vehicle: Klucel (hydroxypropylcellulose) (HPC) 100 % of control | [9] 97 % of control | dose: 100.0 mg/kg/injection, schedule: Q04DX003 (ip), vehicle: Klucel (hydroxypropylcellulose) (HPC) 96 % of control | [10] 102 % of control | dose: 200.0 mg/kg/injection, schedule: Q04DX003 (ip), vehicle: Klucel (hydroxypropylcellulose) (HPC) 93 % of control | [15] 92 % of control | dose: 400.0 mg/kg/injection, schedule: Q04DX003 (ip), vehicle: Klucel (hydroxypropylcellulose) (HPC) 96 % of control

O=C1C=C(Nc2ccc(S(=O)(=O)N(CCCl)CCCl)cc2)c2ccccc2C1=O
inactive: [9] 97 % of control | [10] 100 % of control | [15] 102 % of control

CN1N=Nc2cccc3cccc1c23
inactive: dose: 50.0 mg/kg/injection, schedule: Q01DX009 (ip), vehicle: acetone 112 % of control | dose: 100.0 mg/kg/injection, schedule: Q01DX009 (ip), vehicle: acetone 107 % of control | dose: 100.0 mg/kg/injection, schedule: Q04DX003 (ip), vehicle: acetone 94 % of control | dose: 200.0 mg/kg/injection, schedule: Q04DX003 (ip), vehicle: acetone 87 % of control

CCN(C(C)(C)C(SSSC(c1ccc(Cl)cc1)C(C)(C)N(CC)S(C)(=O)=O)c1ccc(Cl)cc1)S(C)(=O)=O (centres undefined)
inactive: [4] 91 % of control

Source: PubChem BioAssay AID248 (DTP/NCI, 2004)
